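Tested at 5 concentrations; 48 h exposure; 96-well plates; endpoints linearly interpolated, else capped at highest concentration. TGI is the concentration that stops growth completely.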
What was measured:
Assay in all cases: inhibition of tumour cell growth, NCI panel, 48 h
[1] = tested on: SF-539 CNS
[2] = tested on: DU-145 prostate
[3] = tested on: OVCAR-3 ovarian
[4] = tested on: LOX IMVI melanoma
[5] = tested on: T-47D breast
[6] = tested on: HOP-62 NSCLC
[7] = tested on: RPMI-8226 leukemia
[8] = tested on: COLO 205 colon
[9] = tested on: OVCAR-5 ovarian
[10] = tested on: MDA-N
[11] = tested on: SNB-75 CNS
[12] = tested on: IGROV1 ovarian
[13] = tested on: SK-MEL-28 melanoma
[14] = tested on: 786-0 renal
[15] = tested on: NCI/ADR-RES ovarian
[16] = tested on: NCI-H23 lung
[17] = tested on: SK-MEL-5 melanoma
[18] = tested on: OVCAR-4 ovarian
[19] = tested on: PC-3 prostate

Measured: TGI

COc1ccc(NS(=O)(=O)c2ccc3ncn(NS(=O)(=O)c4ccc(I)cc4)c(=O)c3c2)cc1
> 100 µM: all assays above

Clc1ccc(-c2cn3c(nc4ccccc43)c(/C=C/c3cccs3)n2)cc1
> 100 µM: all assays above

N#Cc1nc(N)c(C#N)[nH]1
> 100 µM: all assays above

From PubChem BioAssay (NCI)
